One data set concerns conjunctiva tissue. As to the kind of experiment: HABA assay: screening of biotin-conjugated ocular surface-binding peptides on conjunctival tissue. Also on record: species or system rabbit. The note with it: six peptides of Table 1, biotin-conjugated, 1.0 mg/mL in PBS, 20 min, compared to control. The text has this:
Conjunctival tissue from the ocular surface was targeted to test the binding affinity of the multiple peptides. Conjunctiva was harvested from rabbit eyes (Pel-Freez Biologicals, Rogers, Ariz.) with the underlying tenon's capsule removed, and then cut into 6 mm pieces with a biopsy punch. The conjunctival epithelium was kept intact for testing SABpep, while the epithelium was scrapped off with a cell scraper for testing type I collagen-binding peptide (ColBpep). The tissue pieces were merged in the biotin-conjugated peptide solutions (1.0 mg/mL in PBS, pH 7.4; Life Technologies, NY) for 20 minutes and then washed three times with PBS to remove any unbound peptides. A HABA (4′-hydroxyazobenzene-2-carboxylic acid) assay (Life Technologies, NY) was used to measure the amount of bound peptide (biotin), per manufacturer's instructions. An aqueous solution of biotin (1.0 mg/mL) without peptides was used as a negative control.

The test system of data set [1] is Rabbit conjunctival primary epithelial cells. As to the kind of experiment: Live/dead staining and AlamarBlue cytotoxicity assessment. In kind it is cell-based. The note with it: 1.0 mg/ml, 24 h; data not shown. The protocol:
Rabbit conjunctival primary epithelial cells were isolated as described previously in the main text. Cells were seeded in 96 well microplates for AlamarBlue assays (Life Technologies, NY) and live/dead staining at a density of 10,000 cells/cm^2. Cells were allowed to grow to about 90% confluence before experiments were carried out. Three different concentrations of HA-FL were tested: 1.0 mg/ml, 100 μg/ml and 10 μg/ml. SABpep and ColBpep were added to the medium for 24 h with a concentration of 1.0 mg/ml. Calcein AM and ethidium homodimer-1 (EthD-1; Life Technologies, NY) were used as live/dead staining agents according manufacture's manual, and cells were imaged using Zeiss Axio Imager 2 microscope. AlamarBlue assay was performed with quadruplets for every group. After 2 h incubation, the absorbance values at 570 nm on a Synergy 2 microplate reader were recorded.
For orientation: Alamar Blue is a resazurin reagent that responds to reducing activity.

The subject of data set [2] is rabbit conjunctiva tissue sections (sialic acid on mucin-1; collagen type I). The note with it: for localisation of peptide staining on conjunctiva sections: biotin-conjugated peptide 1.0 mg/ml, compared with anti-mucin-1 / anti-collagen type I antibody. As to the method: To visualize binding of SABpep and ColBpep to the ocular surface, we performed immunohistochemistry with biotin-conjugated peptides on tissue section of rabbit conjunctiva. Conjunctival tissue dissected from rabbit eyes were fixed with 4% paraformaldehyde (PFA) solution (Electron Microscopy Sciences, Hatfield, Pa.), embedded and sectioned (thickness-5 μm) in paraffin. The sections were first incubated with biotin-conjugated peptides (1.0 mg/ml in PBS pH 7.4) for 1 h at room temperature, washed thrice with PBS and then stained with streptavidin-Texas Red conjugate (Vector Laboratories, CA) in accordance to manufacturer's protocol. The samples were then washed again three times, mounted with DAPI mounting medium (Vector Laboratories) and imaged with Zeiss Axio Imager 2 microscope (Carl Zeiss, Jena, Germany). Sections stained with only secondary antibody served as negative control. Mouse anti-mucin-1 primary antibody (Novus Biologicals, Littleton, Colo.) and mouse anti-collagen type I antibody (Abcam, Cambridge, Mass.) were used as replacements to SABpep and ColBpep in the positive controls, respectively, and stained with goat anti-mouse IgG secondary antibody (Life Technologies, NY).
To examine if SABpep binds specifically to sialic acid segment on the oligosaccharide chains, paraffin embedded and 4% PFA fixed rabbit conjunctiva tissue sections were stained with three different groups were selected (SABpep, sialidase treated+SABpep, SA+SABpep). Sections in the first group were stained with SABpep as described in the main text; sections in the second group were treated with sialidase (α2-3,6,8 Neuraminidase, 60 U/ml; New England Biolabs, Ipswich, Mass.) first for one hour at 37° C. before the addition of SABpep; and finally, sections in the third group were stained with SABpep pre-incubated with sialic acid (N-Acetylneuraminic acid, 100 mM; Carbosynth, Compton, Berkshire, UK) for one hour at room temperature. The staining procedure was the same in all three groups (streptavidin-fluorescein was used for detecting biotin conjugated SABpep; DAPI was used as counterstain for nuclei). The sections were imaged using Zeiss Axio Imager 2 microscope.

Read-outs that look alike come from different tables or passages of the source. Ends that are not written are not given here.

Data on 2 sequences can be found in patent publication US20190000983A1, “AN EYE DROP SOLUTION FOR ENHANCED HYALURONIC ACID RETENTION AND DELIVERY” (THE JOHNS HOPKINS UNIVERSITY, priority 2015, published 2019).

“GGSPYGRC (also: biotin, position not given here) [SABpep]”: the “amount of peptide bound to conjunctiva tissue (normalized to the dry weight)” value in the data set with conjunctiva tissue is listed as “the most promising candidates”; in the data set with conjunctiva tissue (listed as peptide 3) it was “bound the most”. Moreover, in data set [1], the “cytotoxicity to epithelial cells” value is “little to no cytotoxicity”. Further, the “localisation of peptide staining on conjunctiva sections” value in data set [2] (1 h, listed as SABpep-biotin) was “binds selectively to epithelial lining of conjunctiva”. In addition, in data set [2] (sialic acid 100 mM, 1 h, room temperature), the “staining of epithelium after preincubation of peptide with sialic acid” value is “still stained the epithelium”. Further, in data set [2] (sialidase 60 U/ml, 1 h at 37° C. before staining), the “binding to conjunctival epithelium after sialidase digestion of the section” value was “could not bind to conjunctival epithelium”.

For the sequence SYIRIADTNIT [ColBpep], the “amount of peptide bound to conjunctiva tissue (normalized to the dry weight)” value with conjunctiva tissue is listed as “the most promising candidates”; in the data set with conjunctiva tissue (listed as peptide 6), “bound the most”. The “cytotoxicity to epithelial cells” value in data set [1] is reported as “little to no cytotoxicity”. For the same sequence, the “localisation of peptide staining on conjunctiva sections” value in data set [2] (1 h, listed as ColBpep-biotin) was “binds to any collagen I on the tissue”.
